Test results published in PMC6966663 (Cancers, 2019).

Assays:
[1] = parameters: method as in PMID 31478386; conditions: clinical; cited from earlier work
[2] = tested on: p-PRAS40; parameters: method as in PMID 31118521; conditions: at 4 h post-dosing; cited from earlier work
[3] = tested on: cells with PI3K/AKT/mTOR pathway alterations; conditions: cited from earlier work
[4] = human, in vivo
Source text: Safety evaluations included adverse events (AEs), vital signs, laboratory tests, and 12-lead electrocardiograms at screening, at planned times during each cycle, during follow-up, and up to 30 days after the last dose. Adverse events were graded using the National Cancer Institute Common CTCAE version 4.03.
Descriptive statistics were used to summarize demographic data, other baseline characteristics, AEs, safety parameters, and tumor assessment data. […] All subjects who completed the study were included in the evaluation of PD/PK. […] The incidence of treatment-emergent adverse events and drug-related adverse events, respectively, was summarized by treatment in frequency tables using the CTCAE grade.

[5] = tested on: HR+ advanced breast cancer; parameters: method as in PMID 31091374; conditions: in combination with fulvestrant, cited from earlier work

## NC1(C(=O)N[C@@H](CCO)c2ccc(Cl)cc2)CCN(c2ncnc3[nH]ccc23)CC1 [AZD5363]
[1]
  Rate of Grade 3 hyperglycemia: up to 39.0%
[2]
  Reduction in p-PRAS40: about 60%

## NC(=O)c1ccc2nc(-c3ccc(C4(N)CCC4)cc3)c(-c3ccccc3)n2n1 [BAY 1125976]
[3]
  IC50 of inhibition of proliferation: submicromolar
[4]
  Patients with at least one treatment-emergent adverse event (TEAE): 77 (97.5%) patients
  Patients with serious adverse events (SAEs): 33 patients

## Cc1nc(NC(=O)N2CCC[C@H]2C(N)=O)sc1-c1ccnc(C(C)(C)C(F)(F)F)c1 [alpelisib]
[5]; PIK3CA-mutated HR+ advanced breast cancer after previous endocrine therapy, versus 5.7 for control
  PFS: 11.0 months
[5]; patients without PIK3CA mutation as printed, versus 12.8% placebo control
  Overall response rate: 26.6%
